Read-outs that look alike come from different tables or passages of the source.
Columns and labels:
[1] = tested on: D4 CHO cells (FRβ); assay: Growth inhibition of CHO subline D4 expressing FRβ; assay type: cell-based, Chinese hamster
[2] = tested on: RT16 CHO cells (FRα); assay: Growth inhibition of CHO subline RT16 expressing human FRα; assay type: cell-based, Chinese hamster
[3] = tested on: PC43-10 CHO cells (human RFC); assay: Growth inhibition of CHO subline PC43-10 expressing human RFC; assay type: cell-based, Chinese hamster
[4] = tested on: KB human tumor cells (RFC/FRα/PCFT); assay: Growth inhibition of KB human tumor cells; assay type: cell-based
Description: The experiments with the CHO sublines were extended to KB human nasopharyngeal carcinoma cells which express highly elevated FRα, along with RFC and PCFT.

[5] = tested on: A-10 cells; assay: Cellular microtubule depolymerization (loss of cellular microtubules) in A-10 cells; assay type: cell-based
[6] = tested on: R2/PCFT4 CHO cells (PCFT); assay: Growth inhibition of CHO subline R2/PCFT4 expressing human PCFT; assay type: cell-based, Chinese hamster; settings: Cricetulus griseus
[7] = tested on: R2 CHO cells (transporter-null); assay: Growth inhibition of transporter-null R2 CHO cells; assay type: cell-based, Chinese hamster; settings: Cricetulus griseus
[8] = tested on: HeLa; assay: Antiproliferative SRB assay, parental HeLa; assay type: cell-based, human
Description: (§1) A second clinically relevant mechanism of drug resistance to these microtubule agents is the expression of βIII isotype of tubulin. […] The WT βIII cell line was generated from HeLa cells transfected with the gene for/III-tubulin.

[9] = tested on: SK-OV-3; assay: Antiproliferative SRB assay, parental SK-OV-3; assay type: cell-based, human
[10] = tested on: purified tubulin; assay: Inhibition of the assembly of purified tubulin; assay type: biochemical; settings: Section V Table 3; read-out: Inhibition of tubulin assembly IC50 (μM) ± SD
[11] = tested on: SK-OV-3 MDR-1-6/6; assay: cells; assay type: cell-based, human
[12] = tested on: tubulin (colchicine site); assay: Inhibition of [3H]colchicine binding to tubulin; settings: 1 μM inhibitor
[13] = tested on: cellular microtubules; assay: Cellular microtubule depolymerization (Section V); assay type: cell-based; settings: Section V Table 2; bare values under μM head, EC50/IC50 ratio implies nM
[14] = tested on: MDA-MB-435 cancer cells; assay: Antiproliferative sulforhodamine B (SRB) assay in MDA-MB-435 cells; assay type: cell-based, human
[15] = tested on: WT βIII cell line; assay: Antiproliferative SRB assay, WT βIII (HeLa transfected with βIII-tubulin); assay type: cell-based; settings: Homo sapiens
Description: as §1

[16] = target: T1, recombinant pjDHFR (Pneumocystis jirovecii (Human pneumocystis pneumonia agent), UniProt Q9UUP5); settings: Section I Table 1; cited from earlier work
[17] = target: T1, recombinant pjDHFR; settings: Section I Table 3
[18] = target: hDHFR (Homo sapiens (Human), UniProt P00374); assay: Inhibition of recombinant hDHFR; assay type: biochemical; settings: Section I Table 3; 37° C., 18 μM dihydrofolic acid; title says μM, head nM; read-out: Human DHFR
Chain of hDHFR (P00374 whole entry): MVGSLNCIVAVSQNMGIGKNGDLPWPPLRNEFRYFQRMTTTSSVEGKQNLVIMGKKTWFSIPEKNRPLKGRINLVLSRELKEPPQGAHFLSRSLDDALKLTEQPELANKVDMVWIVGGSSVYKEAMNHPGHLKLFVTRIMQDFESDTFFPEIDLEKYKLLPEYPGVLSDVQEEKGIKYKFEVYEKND

[19] = Rattus norvegicus, A10, Section II Table 1, 50% loss of cellular microtubules, read-out: Microtubule depolymerization (A-10 cells) EC50 ± SD
[20] = Cricetulus griseus, CHO, Section III Table 1, read-out: D4 (nM) FRβ IC50
[21] = Cricetulus griseus, CHO, Section VI Table 1, read-out: FRβ (nM) D4 IC50
[22] = Cricetulus griseus, RT16, Section III Table 1, read-out: RT16 (nM) FRα IC50
[23] = Cricetulus griseus, RT16, Section VI Table 1, read-out: FRα (nM) R16 IC50
[24] = R2/PCFT4, Section VI Table 1, read-out: PCFT (nM) R2/PCFT4 IC50
[25] = Section III Table 1, R2/PCFT4, read-out: PCFT4 (nM) PCFT IC50
[26] = Section III Table 1, read-out: R2 (nM) Null IC50
[27] = Section VI Table 1, read-out: R2 IC50
[28] = Homo sapiens, PC43-10, Section III Table 1, read-out: PC43-10 (nM) RFC IC50
[29] = Homo sapiens, PC43-10, Section VI Table 1, read-out: RFC (nM) PC43-10 IC50
[30] = Homo sapiens, Section III Table 1, read-out: KB (nM) RFC/FRα/PCFT IC50
[31] = Homo sapiens, Section VI Table 1, read-out: FRα/PCFT/RFC (nM) KB IC50

In the case of `Nc1nc2[nH]c(CCCc3ccc(C(=O)N[C@@H](CCC(=O)O)C(=O)O)cc3)cc2c(=O)[nH]1` [AGF17, reference compound], the IC50 ([1]; Section IV Table 1, +FA, read-out: FRβ D4 (+FA) IC50) is reported as greater than 1000 nM, the IC50 ([1]; Section IV Table 1, read-out: FRβ D4 IC50) is reported as 2.7 nM and the IC50 ([2]; Section IV Table 1, +FA, read-out: FRα RT16 (+FA) IC50) is reported as greater than 1000 nM. For the same compound, the IC50 ([2]; Section IV Table 1, read-out: FRα RT16 IC50) was 3.2 nM, the IC50 ([3]; Section IV Table 1, spread in parentheses, read-out: RFC PC43-10 IC50) was 648 nM and the IC50 ([4]; Section IV Table 1, +FA, read-out: KB (+FA) IC50) was greater than 1000 nM. The IC50 ([4]; Section IV Table 1, read-out: RFC/FRα/PCFT KB IC50) was 1.8 nM.
`CSc1ccc(Nc2nc(C)nc3ccsc23)cc1` [compound 3] showed an EC50 [5, 19] greater than 10000 nM, an IC50 [1, 20] of 0.43 nM and an IC50 [1, 21] greater than 1000 nM. The IC50 [2, 22] was 2.54 nM, the IC50 [2, 23] was greater than 1000 nM and the IC50 [6, 24] was greater than 1000 nM. For the same compound, the IC50 [6, 25] was 41.5 nM, the IC50 [7, 26] was greater than 1000 nM and the IC50 [7, 27] was greater than 1000 nM. It also gave an IC50 [3, 28] greater than 1000 nM, an IC50 [3, 29] greater than 1000 nM and an IC50 [4, 30] of 0.48 nM. For the same compound, the IC50 [4, 31] was 674 nM.
Work on `COc1ccc(/C=C\c2cc(OC)c(OC)c(OC)c2)cc1O` [CA4, Combretastatin A-4, reference compound] yielded an IC50 ([8]; parental HeLa, read-out: HeLa IC50 ± SD) of 4.7 ± 0.2 nM, an IC50 ([9]; parental cell line, SRB, n = 3, read-out: SK-OV-3 IC50 ± SD) of […] and an EC50 ([5]; Section II Table 1, nM, read-out: Microtubule depolymerization (A-10 cells) EC50) of 13 nM. For the same compound, the EC50 ([5]; Section VIII Table 1, read-out: EC50 (nM) in A-10 cells (Loss of cellular microtubules)) was 13 nM, the IC50 [10] was […] and the IC50 ([11]; Pgp overexpressing cell line, SRB, n = 3, read-out: SK-OV-3 MDR-1-6/6 IC50 ± SD) was 6.6 ± 1.3 nM. The “Inhibition of colchicine binding % Inhibition ± SD” value [12] was 85 ± 3%, the EC50 [13] was 9.8 µM and the IC50 ([14]; Section II Table 1, SRB assay, read-out: MDA-MB-435 IC50 ± SD) was 3.4 ± 0.6 nM. It also gave an IC50 ([14]; Section V Table 2, read-out: IC50 MDA-MB-435) of 4.4 ± 0.46 nM and an IC50 ([14]; Section VIII Table 1, read-out: IC50 ± SD (MDA-MB-435) nM cancer cells) of 3.4 ± 0.6 nM.
With `COc1ccc(N(C)c2nc(C)nc3cc[nH]c23)cc1` [compound 1] the IC50 ([8]; Homo sapiens, parental HeLa, read-out: HeLa IC50 ± SD) was 270 ± 26 nM, the IC50 ([9]; Homo sapiens, SK-OV-3, parental cell line, SRB, n = 3, read-out: SK-OV-3 IC50 ± SD) was 278 ± 19 nM and the EC50 [5, 19] was 5800 nM. The EC50 ([5]; Rattus norvegicus, A10, Section VIII Table 1, read-out: EC50 (nM) in A-10 cells (Loss of cellular microtubules)) was 5800 nM, the IC50 [1, 20] was 10 nM and the IC50 [1, 21] was 0.2 nM. It also gave an IC50 [2, 22] of 6.3 nM, an IC50 [2, 23] of 0.19 nM and an IC50 [6, 24] of 3.64 nM. The IC50 [6, 25] was 213 nM, the IC50 [7, 26] was greater than 1000 nM and the IC50 [7, 27] was 289 nM. For the same compound, the IC50 [3, 28] was greater than 1000 nM, the IC50 [3, 29] was 101 nM and the IC50 ([15]; HeLa transfected with βIII-tubulin, read-out: WT βIII IC50 ± SD) was 186 ± 21 nM. For the same compound, the IC50 [4, 30] was 1.9 nM and the IC50 [4, 31] was 0.2 nM.
For `COc1cc(NCc2ccc3nc(N)nc(N)c3c2C)cc(OC)c1OC` [TMQ, trimetrexate], the “Hu/Pj selectivity ratio (hDHFR/pjDHFR)” value [16] is given as 0.1.
For `Cc1nc(N)nc2ccc(Nc3cc(F)c(F)c(F)c3)nc12` [Compound A], the “Hu/Pj selectivity ratio (hDHFR/pjDHFR)” value [16] is listed as 3.5, the Hu/Pj selectivity ratio [17] is listed as 3.5 and the IC50 ([17]; read-out: DHFR Pj, 37° C., 18 μM dihydrofolic acid, title says μM, head nM) is listed as 0.87 µM. For the same compound, the IC50 [18] was 3.1 µM.
For `COc1ccc(N(C)c2nc(C)nc3ccsc23)cc1` [compound 2], the IC50 ([8]; Homo sapiens, HeLa, read-out: HeLa IC50 ± SD (nM)) was 186 ± 19 nM, the IC50 ([9]; Homo sapiens, SK-OV-3, read-out: SK-OV-3 IC50 ± SD (nM)) was 253 ± 23 nM and the EC50 ([5]; Rattus norvegicus, A10, read-out: Microtubule depolymerization (A-10 cells) EC50 ± SD (μM)) was 8100 nM. The IC50 ([1]; Cricetulus griseus, CHO, read-out: D4 (nM) FRβ IC50) was 0.52 nM, the IC50 ([1]; Cricetulus griseus, CHO, read-out: FRβ (nM) D4 IC50) was 2.36 nM and the IC50 ([2]; Cricetulus griseus, RT16, read-out: FRα (nM) R16 IC50) was 1.72 nM. It also gave an IC50 ([2]; Cricetulus griseus, RT16, read-out: RT16 (nM) FRα IC50) of 1.27 nM, an IC50 ([6]; R2/PCFT4, read-out: PCFT4 (nM) PCFT IC50) of 57.6 nM and an IC50 ([6]; R2/PCFT4, read-out: PCFT (nM) R2/PCFT4 IC50) of 40 nM. For the same compound, the IC50 ([7]; read-out: R2 (nM) Null IC50) was greater than 1000 nM, the IC50 ([7]; read-out: R2 IC50) was greater than 1000 nM and the IC50 ([3]; Homo sapiens, PC43-10, read-out: PC43-10 (nM) RFC IC50) was greater than 1000 nM. The IC50 ([3]; Homo sapiens, PC43-10, read-out: RFC (nM) PC43-10 IC50) was greater than 1000 nM, the IC50 ([11]; Homo sapiens, SK-OV-3, read-out: SK-OV-3 MDR-1-6/6 IC50 ± SD (nM)) was 438 ± 58 nM and the IC50 ([15]; HeLa, read-out: WT βIII IC50 ± SD (nM)) was 152 ± 14 nM. For the same compound, the IC50 ([4]; Homo sapiens, read-out: FRα/PCFT/RFC (nM) KB IC50) was 1.13 nM, the IC50 ([4]; Homo sapiens, read-out: KB (nM) RFC/FRα/PCFT IC50) was 0.34 nM and the IC50 ([14]; Homo sapiens, MDA-MB-435, read-out: MDA-MB-435 IC50 ± SD (nM)) was 198 ± 23 nM.
